Test results from patent publication US20240083857A1, “2-Methyl-Quinazolines” (Bayer Pharma Aktiengesellschaft, priority 2017, published 2024).

Columns and labels:
[1] = target: Epidermal Growth Factor Receptor (EGFR) (Homo sapiens (Human), UniProt P00533); assay: EGFR kinase assay (TR-FRET); type: biochemical; settings: values given in μM; read-out: EGFR kinase inhibition IC50
In short: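 Read-out is the 665/620 nm HTRF ratio, from a Tb-cryptate anti-phosphotyrosine antibody and streptavidin-XL665 bound to phosphorylated biotin-peptide substrate. The enzyme, A431-derived EGFR (~3 U/ml), was given 15 min compound pre-binding at 22° C in Hepes pH 7.0 with Mg2+/Mn2+ before reaction.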

[2] = target: human SOS1 (loading of human K-Ras^G12C-GDP with fluorescent GTP-analog) (Homo sapiens, UniProt Q07889); assay: Biochemical assay 3: K-Ras^G12C activation assay by hSOS1 (HTRF); settings: no GTP; read-out: Assay 3 (KRAS-Activation by SOS no GTP) activity expressed as IC50

Sequence of Epidermal Growth Factor Receptor (EGFR) (P00533 25-1210): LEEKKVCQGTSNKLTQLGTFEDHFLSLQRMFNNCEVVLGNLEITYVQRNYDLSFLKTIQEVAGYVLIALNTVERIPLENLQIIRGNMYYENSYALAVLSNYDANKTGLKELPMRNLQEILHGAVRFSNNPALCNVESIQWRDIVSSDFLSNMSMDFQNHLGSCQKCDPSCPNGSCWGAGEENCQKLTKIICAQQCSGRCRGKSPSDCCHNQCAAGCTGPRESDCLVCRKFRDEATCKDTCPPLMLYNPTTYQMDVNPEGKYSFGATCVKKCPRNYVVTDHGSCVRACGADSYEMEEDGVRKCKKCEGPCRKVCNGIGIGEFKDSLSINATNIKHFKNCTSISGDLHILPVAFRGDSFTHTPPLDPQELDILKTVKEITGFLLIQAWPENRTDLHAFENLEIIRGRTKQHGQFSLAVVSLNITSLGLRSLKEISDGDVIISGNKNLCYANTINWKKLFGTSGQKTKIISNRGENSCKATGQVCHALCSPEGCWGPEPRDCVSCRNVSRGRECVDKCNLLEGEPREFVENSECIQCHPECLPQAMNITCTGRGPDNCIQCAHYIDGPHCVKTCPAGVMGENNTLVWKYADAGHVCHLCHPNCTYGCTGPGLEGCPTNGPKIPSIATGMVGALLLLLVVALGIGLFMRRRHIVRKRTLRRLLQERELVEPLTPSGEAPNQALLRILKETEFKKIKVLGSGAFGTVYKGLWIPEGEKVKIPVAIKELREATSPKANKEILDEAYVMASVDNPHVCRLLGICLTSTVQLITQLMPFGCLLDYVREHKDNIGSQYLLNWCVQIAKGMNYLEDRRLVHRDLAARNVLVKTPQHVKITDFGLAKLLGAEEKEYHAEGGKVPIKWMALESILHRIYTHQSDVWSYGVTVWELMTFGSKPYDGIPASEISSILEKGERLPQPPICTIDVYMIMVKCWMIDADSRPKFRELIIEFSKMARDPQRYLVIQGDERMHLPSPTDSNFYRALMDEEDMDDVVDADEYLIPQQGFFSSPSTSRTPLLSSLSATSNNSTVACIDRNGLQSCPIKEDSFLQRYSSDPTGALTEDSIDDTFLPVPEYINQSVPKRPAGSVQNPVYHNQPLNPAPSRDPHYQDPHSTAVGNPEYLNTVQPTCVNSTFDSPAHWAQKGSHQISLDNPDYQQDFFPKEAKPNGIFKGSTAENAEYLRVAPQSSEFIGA

| Structure (SMILES) | IC50 [1] [µM] | IC50 [2] [nM] |
| --- | --- | --- |
| COc1cc2nc(C)nc(N[C@H](C)c3cccc(-c4cn[nH]c4)c3)c2cc1OC(C)C [Example 353, 7-methoxy-2-methyl-6-(propan-2-yloxy)-N-{(1R)-1-[3-(1H-pyrazol-4-yl)phenyl]ethyl}quinazolin-4-amine] | > 20 | 453 |
| COc1cc2nc(C)nc(N[C@H](C)c3cccc(-c4cn[nH]c4)c3)c2cc1OCC1COC1 [Example 354, 7-methoxy-2-methyl-6-(oxetan-3-ylmethoxy)-N-{(1R)-1-[3-(1H-pyrazol-4-yl)phenyl]ethyl}quinazolin-4-amine] | > 20 | 677 |
| CCOc1cc2c(N[C@H](C)c3cccc(-c4cn[nH]c4)c3)nc(C)nc2cc1OC [Example 355, 6-Ethoxy-7-methoxy-2-methyl-N-{(1R)-1-[3-(1H-pyrazol-4-yl)phenyl]ethyl}-quinazolin-4-amine] | > 20 | 714 |
| CCOc1cc2c(N[C@H](C)c3cccc(-c4cnn(CC)c4)c3)nc(C)nc2cc1OC [Example 356, 6-ethoxy-N-{(1R)-1-[3-(1-ethyl-1H-pyrazol-4-yl)phenyl]ethyl}-7-methoxy-2-methylquinazolin-4-amine] | > 20 | 933 |
| COc1cc2nc(C)nc(NC(C)c3ccc(-c4ccccc4-c4cn[nH]c4)s3)c2cc1OC (centres unmarked) [Example 361, 6,7-dimethoxy-2-methyl-N-[1-{5-[2-(1H-pyrazol-4-yl)phenyl]thiophen-2-yl}ethyl]-quinazolin-4-amine] | > 20 | 8600 |
| Cc1nc(N[C@H](C)c2cccc(Cl)c2)c2cc(Br)ccc2n1 [Example 363, 6-bromo-N-[(1R)-1-(3-chlorophenyl)ethyl]-2-methylquinazolin-4-amine] | > 20 | 17200 |
| COc1cc2nc(C)nc(NC(C)c3ccc(-c4ccccc4CNC4CCCC4)s3)c2cc1OC (centres unmarked) [Example 364, N-[1-(5-{2-[(cyclopentylamino)methyl]phenyl}thiophen-2-yl)ethyl]-6,7-dimethoxy-2-methylquinazolin-4-amine] | > 20 | 217 |
| COc1cc2nc(C)nc(NC(C)c3ccc(-c4ccccc4CNCc4ccccc4)s3)c2cc1OC (centres unmarked) [Example 365, N-[1-(5-{2-[(benzylamino)methyl]phenyl}thiophen-2-yl)ethyl]-6,7-dimethoxy-2-methylquinazolin-4-amine] | > 20 | 353 |
| CCCCNCc1ccccc1-c1ccc(C(C)Nc2nc(C)nc3cc(OC)c(OC)cc23)s1 (centres unmarked) [Example 366, N-[1-(5-{2-[(butylamino)methyl]phenyl}thiophen-2-yl)ethyl]-6,7-dimethoxy-2-methylquinazolin-4-amine] | > 20 | 136 |
| CCNCc1ccccc1-c1ccc(C(C)Nc2nc(C)nc3cc(OC)c(OC)cc23)s1 (centres unmarked) [Example 367, N-[1-(5-{2-[(ethylamino)methyl]phenyl}thiophen-2-yl)ethyl]-6,7-dimethoxy-2-methylquinazolin-4-amine] | > 20 | 99 |
